Measurements from PubChem BioAssay (NCI).
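All cell lines were grown in 96-well plates and treated with compound for 48 hours. TGI is the concentration that stops growth completely.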

Experiments:
Test in all cases: growth of human tumour cells (NCI), 48 h
HCT-15 colon = test system: HCT-15 colon
TK-10 renal = test system: TK-10 renal
PC-3 prostate = test system: PC-3 prostate
UO-31 renal = test system: UO-31 renal
HCT-116 colon = test system: HCT-116 colon
HS 578T breast = test system: HS 578T breast
BT-549 breast = test system: BT-549 breast
MDA-MB-435 = test system: MDA-MB-435
ACHN renal = test system: ACHN renal
HOP-92 NSCLC = test system: HOP-92 NSCLC

`O=C1c2ccccc2-c2nc(-c3ccccc3)cc3c2c1nc1ccccc13` showed a TGI (HCT-15 colon) of 28.5 µM, a TGI (TK-10 renal) of 42.5 µM and a TGI (PC-3 prostate) of 32.3 µM. It also gave a TGI (UO-31 renal) of 84.1 µM, a TGI (HCT-116 colon) of 36.5 µM and a TGI (HS 578T breast) of 63.9 µM. It also gave a TGI (BT-549 breast) of 42.9 µM, a TGI (MDA-MB-435) of 3.51 µM and a TGI (ACHN renal) of 91.5 µM.
`COc1ccc(/C(=N/Nc2nc3ccccc3[nH]2)C(=O)O)cc1` showed a TGI (HCT-15 colon) greater than 100 µM, a TGI (TK-10 renal) greater than 100 µM and a TGI (PC-3 prostate) greater than 100 µM. For the same compound, the TGI (UO-31 renal) was greater than 100 µM, the TGI (HCT-116 colon) was greater than 100 µM and the TGI (HOP-92 NSCLC) was greater than 100 µM. It also gave a TGI (HS 578T breast) greater than 100 µM, a TGI (BT-549 breast) greater than 100 µM and a TGI (MDA-MB-435) greater than 100 µM. The TGI (ACHN renal) was greater than 100 µM.
`O=C1CCC2(O)C3Cc4ccc(Oc5nnnn5-c5ccccc5)c5c4C2(CCN3CC2CC2)C1O5` (configuration not stated) showed a TGI (HCT-15 colon) greater than 100 µM, a TGI (TK-10 renal) greater than 100 µM and a TGI (PC-3 prostate) greater than 100 µM. For the same compound, the TGI (UO-31 renal) was 61.1 µM, the TGI (HCT-116 colon) was greater than 100 µM and the TGI (HOP-92 NSCLC) was greater than 100 µM. The TGI (HS 578T breast) was greater than 100 µM, the TGI (BT-549 breast) was greater than 100 µM and the TGI (MDA-MB-435) was 37 µM. The TGI (ACHN renal) was greater than 100 µM.
For `CSc1ncc2c(n1)-c1ccccc1OC2NC(C)(C)C` (configuration not stated), the TGI (HCT-15 colon) was greater than 100 µM, the TGI (TK-10 renal) was greater than 100 µM and the TGI (PC-3 prostate) was greater than 100 µM. For the same compound, the TGI (UO-31 renal) was greater than 100 µM, the TGI (HCT-116 colon) was greater than 100 µM and the TGI (HOP-92 NSCLC) was greater than 100 µM. The TGI (HS 578T breast) was greater than 100 µM, the TGI (BT-549 breast) was greater than 100 µM and the TGI (MDA-MB-435) was greater than 100 µM. The TGI (ACHN renal) was greater than 100 µM.
In the case of `N#Cc1c(Nc2nc3ccccc3s2)c2ccccc2n2c1nc1ccccc12`, the TGI (HCT-15 colon) is reported as greater than 100 µM, the TGI (TK-10 renal) is reported as greater than 100 µM and the TGI (PC-3 prostate) is reported as greater than 100 µM. For the same compound, the TGI (UO-31 renal) was greater than 100 µM, the TGI (HCT-116 colon) was greater than 100 µM and the TGI (HOP-92 NSCLC) was greater than 100 µM. The TGI (HS 578T breast) was greater than 100 µM, the TGI (BT-549 breast) was greater than 100 µM and the TGI (MDA-MB-435) was greater than 100 µM. For the same compound, the TGI (ACHN renal) was greater than 100 µM.
`C/C=C/[C@H]1O[C@@](O)([C@@H](C)[C@H](O)[C@H](C)[C@H]2OC(=O)/C(OC)=C/C(C)=C/[C@@H](C)[C@@H](O)[C@@H](CC)[C@@H](O)[C@H](C)C/C(C)=C/C=C/[C@@H]2OC)C[C@H](OC2CC(O)C(OC(N)=O)C(C)O2)[C@@H]1C` (some centres not stated) showed a TGI (HCT-15 colon) of 12.6 µM, a TGI (TK-10 renal) of 31.7 µM and a TGI (PC-3 prostate) of 15.1 µM. The TGI (HCT-116 colon) was 14 µM, the TGI (HOP-92 NSCLC) was 2.4 µM and the TGI (HS 578T breast) was 48 µM. The TGI (BT-549 breast) was 19.7 µM, the TGI (MDA-MB-435) was 14.8 µM and the TGI (ACHN renal) was 16.7 µM.
Compound `Clc1nc(Nc2nc3ccccc3[nH]2)nc(Cl)c1Cc1ccccc1` has a TGI (HCT-15 colon) greater than 100 µM, a TGI (TK-10 renal) greater than 100 µM and a TGI (PC-3 prostate) greater than 100 µM. The TGI (UO-31 renal) was greater than 100 µM, the TGI (HCT-116 colon) was greater than 100 µM and the TGI (HOP-92 NSCLC) was 70.9 µM. It also gave a TGI (HS 578T breast) greater than 100 µM, a TGI (BT-549 breast) greater than 100 µM and a TGI (MDA-MB-435) greater than 100 µM. The TGI (ACHN renal) was greater than 100 µM.
In the case of `c1csc(-c2csc(-c3ccsc3)c2)c1`, the TGI (HCT-15 colon) is reported as greater than 100 µM, the TGI (TK-10 renal) is reported as greater than 100 µM and the TGI (PC-3 prostate) is reported as greater than 100 µM. The TGI (UO-31 renal) was greater than 100 µM, the TGI (HCT-116 colon) was greater than 100 µM and the TGI (HOP-92 NSCLC) was greater than 100 µM. For the same compound, the TGI (HS 578T breast) was greater than 100 µM, the TGI (BT-549 breast) was greater than 100 µM and the TGI (MDA-MB-435) was greater than 100 µM. The TGI (ACHN renal) was greater than 100 µM.
Compound `CC1(C)CCCCCCCCCC(C)(CCCCCCCCCCCCO)C1=O` (configuration not stated) has a TGI (HCT-15 colon) of 55 µM, a TGI (TK-10 renal) of 31.6 µM and a TGI (PC-3 prostate) of 32.6 µM. It also gave a TGI (UO-31 renal) of 32.1 µM, a TGI (HCT-116 colon) of 31.7 µM and a TGI (HOP-92 NSCLC) of 31.7 µM. For the same compound, the TGI (HS 578T breast) was 38 µM, the TGI (BT-549 breast) was 30.4 µM and the TGI (MDA-MB-435) was 33 µM. It also gave a TGI (ACHN renal) of 28.4 µM.
Work on `CCCCc1ccc(-n2sc3ncccc3c2=O)cc1` yielded a TGI (HCT-15 colon) of 19.9 µM, a TGI (TK-10 renal) of 27.4 µM and a TGI (PC-3 prostate) of 25.5 µM. It also gave a TGI (UO-31 renal) of 34.7 µM, a TGI (HCT-116 colon) of 26.3 µM and a TGI (HS 578T breast) of 43.2 µM. The TGI (BT-549 breast) was 35.7 µM, the TGI (MDA-MB-435) was 37.5 µM and the TGI (ACHN renal) was 23.5 µM.
`COc1ccc2c(c1OC)C(=O)O[C@@H]2[C@H]1c2cc3c(cc2CCN1C)OCO3` showed a TGI (HCT-15 colon) greater than 100 µM, a TGI (TK-10 renal) greater than 100 µM and a TGI (PC-3 prostate) greater than 100 µM. It also gave a TGI (UO-31 renal) greater than 100 µM, a TGI (HCT-116 colon) greater than 100 µM and a TGI (HOP-92 NSCLC) greater than 100 µM. For the same compound, the TGI (HS 578T breast) was greater than 100 µM, the TGI (BT-549 breast) was greater than 100 µM and the TGI (MDA-MB-435) was greater than 100 µM. It also gave a TGI (ACHN renal) greater than 100 µM.
